System: SKH-1 mouse skin
Test: NanoString nCounter gene expression analysis (Mouse Inflammation V2 panel) of SKH-1 mouse skin
Type: in vivo
Procedure: UVB exposure was performed on AP-1 luciferase reporter mice on the SKH-1 genetic background at a dose of 2.75 kJ/m2 using FS40 bulbs (Q-Lab Corporation) as described before with the modification that mice were imaged 24 hr post UVB exposure using whole body bioluminescence instead of 48 hr post UVB using ear punches. SSL irradiation of SKH-1 mice (Charles River Laboratories, strain code 477) at a dose of 90 kJ/m2 UVA/6 kJ/m2 UVB was performed using UVA-340 bulbs (Q-Lab Corporation) as described before.
SKH-1 mouse skin [full thickness, 3 biological samples (i.e., 3 mice per treatment group)] treated either with vehicle (acetone) or 8 mM BMS-202 (all 3 times: 24 hr pre, 1 hr pre, and immediately post) and harvested 24 hr after acute SSL. First, total mRNA was prepared using the RNeasy Mini kit (Qiagen). Next, 100 ng was used for NanoString® nCounter® analysis (using the ‘Mouse Inflammation V2’ panel; probing 254 genes, NanoString® Technologies) comparing gene expression between treatment groups. Total mRNA was hybridized with the ‘Mouse Inflammation V2’ code set at 65° C. overnight. Further purification and binding of the hybridized probes to the optical cartridge was performed on the nCounter® Prep Station, and finally, the cartridge was scanned on the nCounter® Digital Analyzer. RCC files were then imported into nSolver4.0 software (NanoString® Technologies) and checked for data quality using default QC settings; all samples passed data quality QC. All samples were normalized using the geometric mean of the housekeeper genes. Expression ratios were calculated by dividing the mean values of all samples in one experimental group (UV+BMS-202) by the mean values of all samples in the reference group (UV+vehicle control). For data analysis, low count threshold value was 200. For heatmap depiction (FIGS. 3A and 3B, FIG. 5 and FIG. 6), a z-score for a specific gene indicates the number of SDs away from the mean of expression in the reference samples. For ‘pathway score analysis’ (FIGS. 4A, 4B, and 4C), each sample's gene expression profile was then condensed into a small set of pathway scores using nCounter® Advanced Analysis software (version 2.0.115). Pathway scores were fit using the first principal component of each gene set's data, oriented such that each pathway score has positive weights for at least half its genes.
Individual samples were run in triplicate format of biological replicates, and data analysis was performed using the nSolver analysis software (4.0). For p-value adjustment (Benjamini-Yekutieli False Discovery Rate; p-value threshold: 0.05), nCounter® Advanced Analysis software (version 2.0.115) was used. Nonparametric data analysis of murine experimentation was performed using the Mann-Whitney test. Differences between groups were considered significant at *p<0.05.

[1] = 8 mM topical + SSL vs SSL control, SKH-1 skin, 24 hr
[2] = 8 mM topical + SSL vs vehicle + SSL

With `COc1nc(OCc2cccc(-c3ccccc3)c2C)ccc1CNCCNC(C)=O` [BMS-202] as the compound, how does the Bcl6 fold change [1] read?
Its Bcl6 fold change is −12.8 fold.

What about the C1qa fold change [1] of the same compound?
The C1qa fold change was −4.5 fold.

What about the C3 fold change [1] of the same compound?
The C3 fold change was −9.0 fold.

What about the C4a fold change [1] of the same compound?
The C4a fold change was −5.9 fold.

And the C8b fold change [1]?
Its C8b fold change is 26.2 fold.

And the C9 fold change [1]?
The C9 fold change was 18.6 fold.

And the Ccl2 fold change [1]?
Its Ccl2 fold change is −5.3 fold.

What about the Ccl2 fold downregulation [1] of the same compound?
The Ccl2 fold downregulation was 5.3 fold.

And the Ccl7 fold change [1]?
The Ccl7 fold change was −8.1 fold.

And the Ccl7 fold downregulation [1]?
Its Ccl7 fold downregulation is 8.1 fold.

What about the Ccl8 fold change [1] of the same compound?
Its Ccl8 fold change is −5.0 fold.

And the Ccl8 fold downregulation [1]?
Its Ccl8 fold downregulation is 5.0 fold.

And the Ccr3 fold change [1]?
Its Ccr3 fold change is 20.5 fold.

What about the Cdc42 fold change [1] of the same compound?
The Cdc42 fold change was −4.6 fold.

What about the Cebpb fold change [1] of the same compound?
Its Cebpb fold change is −8.3 fold.

What about the Cfl1 fold change [1] of the same compound?
Its Cfl1 fold change is −10.8 fold.

What about the Chi3l3 fold change [1] of the same compound?
Its Chi3l3 fold change is 10.5 fold.

What about the Crp fold change [1] of the same compound?
The Crp fold change was 23.9 fold.

And the Cxcl1 fold change [1]?
Its Cxcl1 fold change is −4.1 fold.

What about the Cxcl1 fold downregulation [1] of the same compound?
Its Cxcl1 fold downregulation is 4.1 fold.

What about the Cxcl3 fold change [1] of the same compound?
The Cxcl3 fold change was −9.1 fold.

What about the Cxcl5 fold change [1] of the same compound?
The Cxcl5 fold change was −11.6 fold.

What about the Cxcl5 fold downregulation [1] of the same compound?
The Cxcl5 fold downregulation was 11.6 fold.

And the Cxcl10 fold change [1]?
The Cxcl10 fold change was 4.3 fold.

What about the Cysltr2 fold change [1] of the same compound?
The Cysltr2 fold change was 14.4 fold.

And the Defa-rs1 fold change [1]?
Its Defa-rs1 fold change is 51.0 fold.

And the Fos fold change [1]?
Its Fos fold change is −4.1 fold.

And the Fos fold downregulation [1]?
Its Fos fold downregulation is 4.1 fold.

What about the Fxyd2 fold change [1] of the same compound?
The Fxyd2 fold change was −17.0 fold.

And the Gnas fold change [1]?
The Gnas fold change was −11.5 fold.

What about the Gnas fold downregulation [1] of the same compound?
Its Gnas fold downregulation is 11.5 fold.

And the Gnb1 fold change [1]?
The Gnb1 fold change was −5.8 fold.

And the Gnb1 fold downregulation [1]?
Its Gnb1 fold downregulation is 5.8 fold.

And the Grb2 fold change [1]?
The Grb2 fold change was −4.5 fold.

What about the H2-Eb1 fold change [1] of the same compound?
The H2-Eb1 fold change was −14.2 fold.

What about the Hif1a fold change [1] of the same compound?
The Hif1a fold change was −9.6 fold.

What about the Hif1a fold downregulation [1] of the same compound?
Its Hif1a fold downregulation is 9.6 fold.

And the II1r1 fold downregulation [1]?
Its II1r1 fold downregulation is 5.5 fold.

And the Ifi44 fold change [1]?
The Ifi44 fold change was 5.2 fold.

And the Ifna1 fold change [1]?
Its Ifna1 fold change is 89.3 fold.

And the Ifnb1 fold change [1]?
Its Ifnb1 fold change is 16.4 fold.

And the Ifng fold change [1]?
Its Ifng fold change is 10.6 fold.

And the Il1b fold downregulation [1]?
The Il1b fold downregulation was 2.9 fold.

What about the Il1r1 fold change [1] of the same compound?
The Il1r1 fold change was −5.5 fold.

And the Il1rap fold downregulation [1]?
Its Il1rap fold downregulation is 3.6 fold.

What about the Il6ra fold downregulation [1] of the same compound?
The Il6ra fold downregulation was 3.4 fold.

And the Il9 fold change [1]?
Its Il9 fold change is 28.9 fold.

And the Il10rb fold downregulation [1]?
Its Il10rb fold downregulation is 3.2 fold.

And the Il18 fold change [1]?
Its Il18 fold change is −20.0 fold.

And the Il18 fold downregulation [1]?
Its Il18 fold downregulation is 20.0 fold.

And the Il21 fold change [1]?
Its Il21 fold change is 50.1 fold.

What about the Il23a fold change [1] of the same compound?
Its Il23a fold change is 6.5 fold.

What about the Irf1 fold change [1] of the same compound?
The Irf1 fold change was −4.1 fold.

And the Itgb2 fold change [1]?
Its Itgb2 fold change is −8.2 fold.

And the Jun fold change [1]?
Its Jun fold change is −5.9 fold.

What about the Jun fold downregulation [1] of the same compound?
Its Jun fold downregulation is 5.9 fold.

And the Kng1 fold change [1]?
Its Kng1 fold change is 14.9 fold.

And the “Ly96 (coreceptor of Tlr4) fold downregulation” value [1]?
Its value is 11.0 fold.

And the Ly96 fold change [1]?
Its Ly96 fold change is −11.0 fold.

What about the Map2k1 fold change [1] of the same compound?
The Map2k1 fold change was −5.8 fold.

What about the Map2k1 fold downregulation [1] of the same compound?
Its Map2k1 fold downregulation is 5.8 fold.

And the Map2k4 fold change [1]?
Its Map2k4 fold change is −6.4 fold.

And the Map2k4 fold downregulation [1]?
The Map2k4 fold downregulation was 6.4 fold.

What about the Map3k1 fold change [1] of the same compound?
Its Map3k1 fold change is −4.5 fold.

And the Map3k1 fold downregulation [1]?
The Map3k1 fold downregulation was 4.5 fold.

What about the Map3k5 fold change [1] of the same compound?
Its Map3k5 fold change is −6.4 fold.

What about the Map3k5 fold downregulation [1] of the same compound?
Its Map3k5 fold downregulation is 6.4 fold.

What about the Map3k7 fold downregulation [1] of the same compound?
The Map3k7 fold downregulation was 3.7 fold.

And the Mapk1 fold downregulation [1]?
Its Mapk1 fold downregulation is 3.7 fold.

What about the Mapk3 fold change [1] of the same compound?
Its Mapk3 fold change is −6.3 fold.

And the Mapk3 fold downregulation [1]?
Its Mapk3 fold downregulation is 6.3 fold.

What about the Mapk8 fold downregulation [1] of the same compound?
The Mapk8 fold downregulation was 3.1 fold.

What about the Mapk14 fold change [1] of the same compound?
Its Mapk14 fold change is −5.9 fold.

What about the Mapk14 fold downregulation [1] of the same compound?
The Mapk14 fold downregulation was 5.9 fold.

What about the Mapkapk2 fold change [1] of the same compound?
The Mapkapk2 fold change was −5.2 fold.

And the Mapkapk2 fold downregulation [1]?
The Mapkapk2 fold downregulation was 5.1 fold.

What about the Mbl2 fold change [1] of the same compound?
The Mbl2 fold change was 15.7 fold.

And the Mef2c fold change [1]?
The Mef2c fold change was −64.9 fold.

What about the Mmp3 fold downregulation [1] of the same compound?
Its Mmp3 fold downregulation is 3.8 fold.

What about the Mmp9 fold change [1] of the same compound?
Its Mmp9 fold change is −8.2 fold.

What about the Mmp9 fold downregulation [1] of the same compound?
Its Mmp9 fold downregulation is 8.2 fold.

What about the Mrc1 fold change [1] of the same compound?
Its Mrc1 fold change is −5.4 fold.

What about the Mx1 fold change [1] of the same compound?
Its Mx1 fold change is 36.2 fold.

And the Mx2 fold change [1]?
The Mx2 fold change was 5.3 fold.

What about the Myc fold downregulation [1] of the same compound?
The Myc fold downregulation was 3.3 fold.

And the Myd88 fold downregulation [1]?
The Myd88 fold downregulation was 2.7 fold.

And the Nf2el2 fold downregulation [1]?
The Nf2el2 fold downregulation was 3.5 fold.

What about the Nfatc3 fold change [1] of the same compound?
Its Nfatc3 fold change is −4.1 fold.

And the Nfatc3 fold downregulation [1]?
The Nfatc3 fold downregulation was 4.1 fold.

And the Nfkb1 fold change [1]?
Its Nfkb1 fold change is −5.9 fold.

What about the Nfkb1 fold downregulation [1] of the same compound?
The Nfkb1 fold downregulation was 5.9 fold.

What about the Nod2 fold change [1] of the same compound?
Its Nod2 fold change is −5.1 fold.

And the Nos2 fold change [1]?
Its Nos2 fold change is 6.1 fold.

And the Nr3c1 fold change [1]?
The Nr3c1 fold change was −4.9 fold.

What about the Oas1a fold change [1] of the same compound?
The Oas1a fold change was −4.3 fold.

And the Pdgfa fold change [1]?
Its Pdgfa fold change is −5.2 fold.

What about the Pdgfa fold downregulation [1] of the same compound?
Its Pdgfa fold downregulation is 5.2 fold.

What about the Ppp1r12b fold change [1] of the same compound?
Its Ppp1r12b fold change is −12.1 fold.

What about the Ptgs1 fold downregulation [1] of the same compound?
Its Ptgs1 fold downregulation is 3.1 fold.

What about the Ptgs2 fold downregulation [1] of the same compound?
Its Ptgs2 fold downregulation is 1.7 fold.

And the Rac1 fold change [1]?
The Rac1 fold change was −7.3 fold.

What about the Rac1 fold downregulation [1] of the same compound?
The Rac1 fold downregulation was 7.3 fold.

What about the Raf1 fold change [1] of the same compound?
Its Raf1 fold change is −5.7 fold.

And the Raf1 fold downregulation [1]?
The Raf1 fold downregulation was 5.7 fold.

And the Rhoa fold change [1]?
Its Rhoa fold change is −5.9 fold.

What about the Shc1 fold change [1] of the same compound?
Its Shc1 fold change is −7.4 fold.

And the Stat1 fold downregulation [1]?
The Stat1 fold downregulation was 2.8 fold.

What about the Stat2 fold downregulation [1] of the same compound?
Its Stat2 fold downregulation is 2.5 fold.

What about the Stat3 fold change [1] of the same compound?
Its Stat3 fold change is −7.4 fold.

What about the Stat3 fold downregulation [1] of the same compound?
Its Stat3 fold downregulation is 7.4 fold.

And the Tcf4 fold change [1]?
Its Tcf4 fold change is −4.4 fold.

What about the Tgfb1 fold change [1] of the same compound?
The Tgfb1 fold change was −13.3 fold.

And the Tgfb1 fold downregulation [1]?
The Tgfb1 fold downregulation was 13.3 fold.

What about the Tgfb3 fold downregulation [1] of the same compound?
The Tgfb3 fold downregulation was 2.7 fold.

What about the Tlr2 fold downregulation [1] of the same compound?
The Tlr2 fold downregulation was 2.4 fold.

And the Tlr8 fold downregulation [1]?
The Tlr8 fold downregulation was 3.4 fold.

What about the Tlr9 fold change [1] of the same compound?
Its Tlr9 fold change is 8.3 fold.

And the Tnfsf14 fold change [1]?
Its Tnfsf14 fold change is 4.8 fold.

What about the Trem2 fold change [1] of the same compound?
The Trem2 fold change was −4.5 fold.

What about the Tslp fold change [1] of the same compound?
Its Tslp fold change is 4.3 fold.

And the Tyrobp fold change [1]?
Its Tyrobp fold change is −4.9 fold.

And the “pathway score: immune response” value [2]?
Its value is “upregulated”.

And the “pathway scores: activation of NFκB, innate immune response, chemokine activity, inflammatory response, angiogenesis” value [2]?
Its value is “downregulated”.

Source: US20260240826A1, “COMPOSITIONS FOR PD-L1 INHIBITION AND METHODS OF USE THEREOF” (ARIZONA BOARD OF REGENTS ON BEHALF OF THE UNIVERSITY OF …, priority 2023, published 2026)
